Assay results from patent publication US5349127A, “Expression of herbicide metabolizing cytochromes P450” (priority 1992, dated 1994).
Values joined by “and” are separate entries in the source; they are usually repeats but may differ in a detail not shown here. Equal values may be shown once.

How the values were obtained:
[1] = system: Tobacco plants (Nicotiana tabactum cv. Wisconsin 38); experiment: Foliar spray of 10015 on P450SU1 transformed tobacco plants (Example 21); type: in vivo, Nicotiana tabacum; conditions: individual plants
Description: Tobacco plants (Nicotiana tabactum cv. Wisconsin 38) transformed with plasmids pAGS112, pSU18, pSSU-SU111, pCab-SU121 or pCab-SU131 (singly) and accumulating the P450SU1 protein were identified by Western blot analysis. Seed arising from the self pollination of individual primary transformants designated AGS112, SU18.8, SU18.14, SSU-SU111.5, […], and Cab-SU131.5 gave rise to the plants described in this Example. The progeny of primary AGS112 and Cab-SU121.5 transformants segregated for single copy kanamycin resistance. In contrast, the progeny of the plants transformed with plasmids containing P450SU1 (other than Cab-SU121.5) segregated for multicopy kanamycin resistance. Thus, most plants containing the gene encoding P450SU1 and sprayed with 10015 in this Example likely contained at least one, and in many cases multiple, copies of P450SU1, while very few individuals likely carried no copies of the gene encoding P450SU1.
Seed from transformed and nontransformed tobacco plants was germinated in a commercial potting mix Metro-Mix® 350 for 25 days. Individual plants were then transferred to 4 inch×4 inch pots containing Metro Mix® 350 and were allowed to grow in the greenhouse for an additional 22 days at which time most plants contained 4-5 fully expanded leaves. A developmentally uniform population of plants was selected from among these transplants and the individual plants were then sprayed with a carrier solution of AGWT (90.2% Acetone: 4.8% Glycerol: 4.8% Water: 0.24% Tween 20 by volume) containing sulfonylurea compound 10015 at concentrations of 1,4, or 16 grams/hectare (g/ha). The sprayed plants were returned to the greenhouse and rated for injury 22 days later.

[2] = system: S. griseolus ATCC 11796; experiment: Percent conversion of herbicides by cultures (Example 16); type: in vitro ADME, Streptomyces griseolus; conditions: 3.0 mg herbicide in 25 ml broth; 24 hours
[3] = system: transformed tobacco seedlings; experiment: Growth of transformed tobacco seed on medium with 10001 (Example 24); type: in vivo, Nicotiana tabacum; conditions: AGS502 (no P450 gene), 100 days
Description: Tobacco seed from plants transformed with several P450SU1 and P450SU1+FeS-Bconstructions were tested for their ability to grow on tissue culture medium supplemented with compound 10001. Seed was placed on medium containing: 0, 5, 10, 20, and 40 nM of compound 10001. After 100 days, the plants were visually rated for their resistance (due to herbicide detoxification) to the herbicide treatment. All plants grown in the absence of herbicide and those treated with the lowest levels (5 nM and 10 nM) of 10001 had grown so large that no comparative rating was possible. The severely growth inhibited plants (those grown in the presence of 20 nM and 40 nM of compound 10001) were scored by comparing them to AGS502 plants (transformed without P450 gene) in Table 23.
SCORING SYSTEM: Visual comparison to AGS502 plants which uniformly appeared:
Ratings: 0=essentially identical to AGS 502 controls; 1=marginally larger ([…]1.2×) than AGS502; 2=clearly larger (1.2 to 2×) than AGS502; 3=substantially larger (>2×) than AGS502.

Compound	% Damage ([1]; 1 g/ha, AGS 112, 22 days)	% Damage ([1]; 1 g/ha, Cab-SU111.8, 22 days)	% Damage ([1]; 1 g/ha, Cab-SU121.5, 22 days)	% Damage ([1]; 1 g/ha, Cab-SU131.5, 22 days)	% Damage ([1]; 1 g/ha, SSU-SU111.5, 22 days)	% Damage ([1]; 1 g/ha, SU18.14, 22 days)	% Damage ([1]; 1 g/ha, SU18.8, 22 days)	% Damage ([1]; 1 g/ha, W38, 22 days after spraying)	% Damage ([1]; 4 g/ha, AGS 112, 22 days)	% Damage ([1]; 4 g/ha, Cab-SU111.8, 22 days)	% Damage ([1]; 4 g/ha, Cab-SU121.5, 22 days)	% Damage ([1]; 4 g/ha, Cab-SU131.5, 22 days)	% Damage ([1]; 4 g/ha, SSU-SU111.5, 22 days)	% Damage ([1]; 4 g/ha, SU18.14, 22 days)	% Damage ([1]; 4 g/ha, SU18.8, 22 days)	% Damage ([1]; 4 g/ha, W38, 22 days)	Percent Conversion [2]	appearance of AGS502 plants ([3]; 10001 20 nM)	appearance of AGS502 plants ([3]; 10001 40 nM)
COc1cc(OC)nc(NC(=O)NS(=O)(=O)c2cccc3c2S(=O)(=O)N(C(C)C)C3)n1 [compound 10015]	0% and 10%	90% and 95%	85% and 95% and 20%	50% and 95% and 90%	95%	40%	10%	0% and 10%	0% and 40%	0% and 99%	90% and 100% and 95%	40% and 100%	100%	70%	60%	0% and 10% and 20% and 30%			
CCOC(=O)c1ccccc1S(=O)(=O)NC(=O)Nc1nc(Cl)cc(OC)n1 [compound 10001, N-[(4-chloro-6-methoxy-pyrimidin-2-yl)aminocarbonyl]-2-ethoxycarbonylbenzenesulfonamide]																	100%	~1 cm tall, 6 leaves ~1 cm diameter	~0.5 cm tall, 6 leaves ~0.3 cm diameter, chlorotic
